Patent US10544147B2, “Purine inhibitors of human phosphatidylinositol 3-kinase delta” (MERCK SHARP & DOHME CORP., priority 2016, dated 2020)
pIC50: −log10 of the molar value.

How the values were obtained:
PI3Kdelta = PI3Kdelta (Homo sapiens (Human), UniProt O00329); test: HTRF PI3K biochemical assay, delta isoform; conditions: 0.3 nM enzyme, 100 uM ATP, 50 uM PIP2; form screened (neutral or TFA salt)
PI3Kalpha = PI3Kalpha (Homo sapiens (Human), UniProt P42336); test: HTRF PI3K biochemical assay, alpha isoform (selectivity versus delta); conditions: ratio PI3K-alpha IC50 value/PI3K-delta IC50 value
Sequence of PI3Kalpha (P42336 whole entry, canonical isoform): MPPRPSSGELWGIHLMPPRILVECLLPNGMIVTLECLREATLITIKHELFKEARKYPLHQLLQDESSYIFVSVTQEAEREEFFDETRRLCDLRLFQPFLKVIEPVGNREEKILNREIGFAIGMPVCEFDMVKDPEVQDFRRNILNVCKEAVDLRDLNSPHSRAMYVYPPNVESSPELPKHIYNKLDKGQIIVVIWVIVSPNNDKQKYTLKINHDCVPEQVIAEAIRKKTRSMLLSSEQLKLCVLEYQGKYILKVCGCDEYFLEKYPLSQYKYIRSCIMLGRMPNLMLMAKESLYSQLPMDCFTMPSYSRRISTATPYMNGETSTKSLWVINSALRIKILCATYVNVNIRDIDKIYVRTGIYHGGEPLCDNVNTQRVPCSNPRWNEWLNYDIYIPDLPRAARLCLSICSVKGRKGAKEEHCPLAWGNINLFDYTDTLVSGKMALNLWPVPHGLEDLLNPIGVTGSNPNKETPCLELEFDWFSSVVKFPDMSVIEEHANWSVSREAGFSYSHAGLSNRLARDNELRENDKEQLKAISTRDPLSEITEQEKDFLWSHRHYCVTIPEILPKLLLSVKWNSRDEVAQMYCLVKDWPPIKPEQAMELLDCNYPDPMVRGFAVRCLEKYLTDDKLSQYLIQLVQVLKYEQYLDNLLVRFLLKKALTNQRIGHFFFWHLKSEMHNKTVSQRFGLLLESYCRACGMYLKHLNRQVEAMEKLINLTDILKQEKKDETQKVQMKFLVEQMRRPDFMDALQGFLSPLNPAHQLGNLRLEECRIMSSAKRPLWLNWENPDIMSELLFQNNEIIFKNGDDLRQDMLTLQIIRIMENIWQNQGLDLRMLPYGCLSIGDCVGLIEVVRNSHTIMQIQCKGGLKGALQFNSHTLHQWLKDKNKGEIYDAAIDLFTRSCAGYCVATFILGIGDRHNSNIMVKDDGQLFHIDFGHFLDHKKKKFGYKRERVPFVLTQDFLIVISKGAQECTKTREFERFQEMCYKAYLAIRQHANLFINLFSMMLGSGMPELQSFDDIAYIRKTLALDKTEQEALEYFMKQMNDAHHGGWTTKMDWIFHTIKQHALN
Sequence of PI3Kalpha (P27986 whole entry partner, canonical isoform): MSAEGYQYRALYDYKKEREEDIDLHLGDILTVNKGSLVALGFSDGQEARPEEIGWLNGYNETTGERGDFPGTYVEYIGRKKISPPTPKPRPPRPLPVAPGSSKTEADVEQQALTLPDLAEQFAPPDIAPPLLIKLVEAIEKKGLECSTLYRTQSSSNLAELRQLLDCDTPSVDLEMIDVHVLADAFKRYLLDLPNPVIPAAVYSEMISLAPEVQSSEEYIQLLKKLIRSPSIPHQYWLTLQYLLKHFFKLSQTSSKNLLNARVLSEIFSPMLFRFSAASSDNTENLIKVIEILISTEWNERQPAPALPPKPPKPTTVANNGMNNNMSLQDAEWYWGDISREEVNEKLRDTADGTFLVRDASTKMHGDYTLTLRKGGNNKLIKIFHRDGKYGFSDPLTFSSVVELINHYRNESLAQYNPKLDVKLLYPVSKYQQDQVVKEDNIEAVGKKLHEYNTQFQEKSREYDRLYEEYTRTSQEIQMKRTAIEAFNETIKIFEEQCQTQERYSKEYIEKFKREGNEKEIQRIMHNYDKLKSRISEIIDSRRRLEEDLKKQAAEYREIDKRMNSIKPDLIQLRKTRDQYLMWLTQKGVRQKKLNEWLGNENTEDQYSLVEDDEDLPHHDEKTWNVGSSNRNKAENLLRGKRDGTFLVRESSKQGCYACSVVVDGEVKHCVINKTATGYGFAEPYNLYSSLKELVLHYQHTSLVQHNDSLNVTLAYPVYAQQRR

Sequence of PI3Kdelta (O00329 whole entry, canonical isoform): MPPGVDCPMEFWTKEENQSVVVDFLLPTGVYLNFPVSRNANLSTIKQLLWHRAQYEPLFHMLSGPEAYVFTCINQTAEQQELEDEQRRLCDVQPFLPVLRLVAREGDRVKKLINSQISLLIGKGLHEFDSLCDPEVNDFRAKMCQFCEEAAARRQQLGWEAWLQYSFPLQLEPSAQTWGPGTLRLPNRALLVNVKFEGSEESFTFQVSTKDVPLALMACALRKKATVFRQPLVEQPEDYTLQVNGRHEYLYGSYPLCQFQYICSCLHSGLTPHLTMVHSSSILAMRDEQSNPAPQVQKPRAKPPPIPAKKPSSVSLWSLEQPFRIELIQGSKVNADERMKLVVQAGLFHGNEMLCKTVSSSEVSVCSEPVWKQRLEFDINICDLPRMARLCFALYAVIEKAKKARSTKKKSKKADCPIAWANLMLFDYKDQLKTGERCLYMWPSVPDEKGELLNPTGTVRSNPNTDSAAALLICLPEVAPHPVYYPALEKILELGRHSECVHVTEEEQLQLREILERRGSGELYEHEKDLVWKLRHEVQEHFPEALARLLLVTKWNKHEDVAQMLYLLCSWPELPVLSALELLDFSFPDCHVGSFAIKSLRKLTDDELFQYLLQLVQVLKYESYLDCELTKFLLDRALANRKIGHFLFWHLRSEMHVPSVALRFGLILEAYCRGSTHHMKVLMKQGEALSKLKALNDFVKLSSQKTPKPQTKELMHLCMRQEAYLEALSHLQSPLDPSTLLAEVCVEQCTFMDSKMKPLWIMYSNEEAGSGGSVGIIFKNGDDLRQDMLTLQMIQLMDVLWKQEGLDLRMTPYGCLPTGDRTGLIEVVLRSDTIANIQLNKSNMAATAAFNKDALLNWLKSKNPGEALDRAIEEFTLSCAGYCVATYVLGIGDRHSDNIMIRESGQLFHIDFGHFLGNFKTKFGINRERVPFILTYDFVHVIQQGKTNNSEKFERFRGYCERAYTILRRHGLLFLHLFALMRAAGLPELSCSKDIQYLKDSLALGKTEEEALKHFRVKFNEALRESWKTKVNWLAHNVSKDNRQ
Sequence of PI3Kdelta (P27986 whole entry partner, canonical isoform): as the sequence (P27986 whole entry partner, canonical isoform) above

pIC50 (PI3Kdelta) | Relative Selectivity versus PI3Kalpha (PI3Kalpha) | SMILES
8.60 | >10 | Cc1ncc(-c2nc3c(-c4ccc5c(c4)C4(CCCN4C(=O)C4CC4)C(=O)N5CC(C)(C)O)ncnc3n2C)cn1 (single isomer, unassigned) [Compound 3-17, (R or S)-1′-(cyclopropanecarbonyl)-1-(2-hydroxy-2-methylpropyl)-5-(9-methyl-8-(2-methylpyrimidin-5-yl)-9H-purin-6-yl)spiro[indoline-3,2′-pyrrolidin]-2-one]
7.43 | >10 | CCn1c(-c2cnc(C)nc2)nc2c(-c3ccc4oc(=O)n(C(C)c5ccccc5)c4c3)ncnc21 (single isomer, unassigned) [Compound 5-2, (R or S)-5-[9-ethyl-8-(2-methylpyrimidin-5-yl)-9H-purin-6-yl]-3-(1-phenylethyl)-1,3-benzoxazol-2(3H)-one]
7.16 | 2 | CCn1c(-c2cnc(C)nc2)nc2c(-c3ccc4c(c3)C3(CCCN3S(=O)(=O)C(F)(F)F)C(=O)N4)ncnc21 (single isomer, unassigned) [Compound 3-21, (R or S)-5-(9-ethyl-8-(2-methylpyrimidin-5-yl)-9H-purin-6-yl)-1′-((trifluoromethyl)sulfonyl)spiro[indoline-3,2′-pyrrolidin]-2-one]
7.49 | >10 | CCn1c(-c2cnc(C)nc2)nc2c(-c3ccc4c(c3)C3(CCCN3S(C)(=O)=O)C(=O)N4C)ncnc21 (single isomer, unassigned) [Compound 3-24, (R or S)-5-(9-ethyl-8-(2-methylpyrimidin-5-yl)-9H-purin-6-yl)-1-methyl-1′-(methylsulfonyl)spiro[indoline-3,2′-pyrrolidin]-2-one]
7.62 | >10 | CCn1c(-c2cnc(C)nc2)nc2c(-c3ccc4[nH]c(=O)n(C(C)C5CC5)c4c3)ncnc21 (single isomer, unassigned) [Compound 5-8, (R or S)-1-(1-cyclopropylethyl)-6-[9-ethyl-8-(2-methylpyrimidin-5-yl)-9H-purin-6-yl]-1,3-dihydro-2H-benzimidazol-2-one]
7.35 | >10 | Cc1ncc(-c2nc3c(-c4ccc5c(c4)C4(CCCN4C(C)C)C(=O)N5)ncnc3n2C)cn1 (single isomer, unassigned) [Compound 3-13, (R or S)-1′-isopropyl-5-(9-methyl-8-(2-methylpyrimidin-5-yl)-9H-purin-6-yl)spiro[indoline-3,2′-pyrrolidin]-2-one]
7.23 | 6 | CCn1c(-c2cnc(C)nc2)nc2c(-c3ccc4c(c3)C(C)(CC(C)C)OC(=O)N4)ncnc21 (single isomer, unassigned) [Compound 4-3, (R or S)-6-[9-ethyl-8-(2-methylpyrimidin-5-yl)-9H-purin-6-yl]-4-methyl-4-(2-methylpropyl)-1,4-dihydro-2H-3,1-benzoxazin-2-one]
8.70 | >10 | Cc1ncc(-c2nc3c(-c4ccc5c(c4)C4(CCCN4C(=O)C4CC4)C(=O)N5CCN4CCOCC4)ncnc3n2C)cn1 (single isomer, unassigned) [Compound 3-16, (R or S)-1′-(cyclopropanecarbonyl)-5-(9-methyl-8-(2-methylpyrimidin-5-yl)-9H-purin-6-yl)-1-(2-morpholinoethyl)spiro[indoline-3,2′-pyrrolidin]-2-one]

Further lines, the compound ahead of its results:

SMILES | pIC50 (PI3Kdelta) | Relative Selectivity versus PI3Kalpha (PI3Kalpha)
CCn1c(-c2cnc(C)nc2)nc2c(-c3ccc4c(c3)C(C)(OCC(C)(C)F)C(=O)N4)ncnc21 (single isomer, unassigned) [Compound 2-56, (R or S)-5-(9-ethyl-8-(2-methylpyrimidin-5-yl)-9H-purin-6-yl)-3-(2-fluoro-2-methylpropoxy)-3-methylindolin-2-one] | 8.52 | >10
CCn1c(-c2cnc(C)nc2)nc2c(-c3ccc4c(c3)C(C)(N3C[C@@H](F)[C@H](F)C3)C(=O)N4)ncnc21 (single isomer, unassigned) [Compound 2-62, 3-(R or S)-((3R,4R)-3,4-difluoropyrrolidin-1-yl)-5-(9-ethyl-8-(2-methylpyrimidin-5-yl)-9H-purin-6-yl)-3-methylindolin-2-one] | 8.22 | >10
CCn1c(-c2cnc(C)nc2)nc2c(-c3ccc4c(c3)C(C)(N3CCn5nccc5C3)C(=O)N4)ncnc21 (racemic) [Compound 2-24, (R and S)-3-(6,7-dihydropyrazolo[1,5-a]pyrazin-5(4H)-yl)-5-[9-ethyl-8-(2-methylpyrimidin-5-yl)-9H-purin-6-yl]-3-methyl-1,3-dihydro-2H-indol-2-one] | 7.17 | >10
Cc1ncc(-c2nc3c(-c4cnc5c(c4)C(C)(NCC(C)(C)F)C(=O)N5)ncnc3n2C)cn1 (single isomer, unassigned) [Compound 2-59, (S or R)-5-(9-methyl-8-(2-methylpyrimidin-5-yl)-9H-purin-6-yl)-3-((2-fluoro-2-methylpropyl)amino)-3-methyl-1H-pyrrolo[2,3-b]pyridin-2(3H)-one] | 8.70 | >10
CCn1c(-c2cnc(C)nc2)nc2c(-c3ccc4c(c3)C(C)(NCC3(C#N)CCC3)C(=O)N4)ncnc21 (racemic) [Compound 2-19, (R and S)-1-[({5-[9-ethyl-8-(2-methylpyrimidin-5-yl)-9H-purin-6-yl]-3-methyl-2-oxo-2,3-dihydro-1H-indol-3-yl}amino)methyl]cyclobutane-carbonitrile] | 7.66 | >10
Cc1ncc(-c2nc3c(-c4cnc5c(c4)C(C)(CC(C)C)C(=O)N5)ncnc3n2C)cn1 (single isomer, unassigned) [Compound 1-26, (R or S)-3-isobutyl-3-methyl-5-(9-methyl-8-(2-methylpyrimidin-5-yl)-9H-purin-6-yl)-1,3-dihydro-2H-pyrrolo[2,3-b]pyridin-2-one] | 7.30 | >10
CCn1c(-c2cnc(C)nc2)nc2c(-c3ccc4c(c3)C(C)(NCCOC)C(=O)N4)ncnc21 (racemic) [Compound 2-16, (R and S)-5-[9-ethyl-8-(2-methylpyrimidin-5-yl)-9H-purin-6-yl]-3-[(2-methoxyethyl)amino]-3-methyl-1,3-dihydro-2H-indol-2-one] | 7.37 | >10
CCn1c(-c2cnc(C)nc2)nc2c(-c3ccc4c(c3)C(C)(NCC3CC3)C(=O)N4)ncnc21 (single isomer, unassigned) [Compound 2-33, (R or S)-3-[(cyclopropylmethyl)amino]-5-[9-ethyl-8-(2-methylpyrimidin-5-yl)-9H-purin-6-yl]-3-methyl-1,3-dihydro-2H-indol-2-one] | 5.56 | >4
CCn1c(-c2cnc(C)nc2)nc2c(-c3ccc4c(c3)C(C)(N[C@@H](C)C3CC3)C(=O)N4)ncnc21 (single isomer, unassigned) [Compound 2-13, 3-{[(1S)-1-cyclopropylethyl]amino}-5-[9-ethyl-8-(2-methylpyrimidin-5-yl)-9H-purin-6-yl]-3(R or S)-methyl-1,3-dihydro-2H-indol-2-one] | 7.49 | >10
CCn1c(-c2cnc(C)nc2)nc2c(-c3ccc4c(c3)C(C)(C3CCOCC3)C(=O)N4)ncnc21 (single isomer, unassigned) [Compound 1-35, 5-(9-Ethyl-8-(2-methylpyrimidin-5-yl)-9H-purin-6-yl)-3-methyl-3-(tetrahydro-2H-pyran-4-yl)indolin-2-one] | 8.30 | >10
CCn1c(-c2cnc(C)nc2)nc2c(-c3ccc4c(c3)C(C)(Cc3ccccc3)C(=O)N4C)ncnc21 (single isomer, unassigned) [Compound 1-21, 3-Benzyl-5-(9-ethyl-8-(2-methylpyrimidin-5-yl)-9H-purin-6-yl)-1,3-dimethylindolin-2-one] | 8.40 | >10
CCn1c(-c2cnc(C)nc2)nc2c(-c3ccc4c(c3)C(C)(OCC(C)(C)F)C(=O)N4)ncnc21 (single isomer, unassigned) [Compound 2-55, (R or S)-5-(9-ethyl-8-(2-methylpyrimidin-5-yl)-9H-purin-6-yl)-3-(2-fluoro-2-methylpropoxy)-3-methylindolin-2-one] | 6.70 | >10
CCn1c(-c2cnc(C)nc2)nc2c(-c3ccc4c(c3)C(C)(N[C@@H](C)C3CC3)C(=O)N4)ncnc21 (single isomer, unassigned) [Compound 2-12, 3-{[(1S)-1-cyclopropylethyl]amino}-5-[9-ethyl-8-(2-methylpyrimidin-5-yl)-9H-purin-6-yl]-3(R or S)-methyl-1,3-dihydro-2H-indol-2-one] | 8.30 | >10
CCn1c(-c2cnc(C)nc2)nc2c(-c3ccc4c(c3)C(C)(N[C@H]3C[C@H](OC)C3)C(=O)N4)ncnc21 (single isomer, unassigned) [Compound 2-82, 5-(9-ethyl-8-(2-methylpyrimidin-5-yl)-9H-purin-6-yl)-3-(((1R,3R)-3-methoxycyclobutyl)amino)-3(R or S)-methylindolin-2-one] | 5.80 | 8
CCn1c(-c2cnc(C)nc2)nc2c(-c3ccc4c(c3)C(C)(N3C[C@@H](C)O[C@@H](C)C3)C(=O)N4)ncnc21 (single isomer, unassigned) [Compound 2-4, (R or S)-3-[(cis)-2,6-dimethylmorpholin-4-yl]-5-[9-ethyl-8-(2-methylpyrimidin-5-yl)-9H-purin-6-yl]-3-methyl-1,3-dihydro-2H-indol-2-one] | 8.30 | >10
CCn1c(-c2cnc(C)nc2)nc2c(-c3ccc4c(c3)C(C)(OCC3CC3)C(=O)N4)ncnc21 (single isomer, unassigned) [Compound 2-58, (R or S)-3-(cyclopropylmethoxy)-5-(9-ethyl-8-(2-methylpyrimidin-5-yl)-9H-purin-6-yl)-3-methylindolin-2-one] | 8.15 | >10
